# According to patent publication EP2179734B1, “Benzoxazine and dihydroquinazoline derivatives for use in the treatment of alcohol withdrawal syndrome” (Biocodex, priority 2008, dated 2010):
# Assays:
# [1] = test system: souris sevrée; experiment: Anxiety level during alcohol withdrawal: two-compartment (light/dark) box test (Crawley and Goodwin 1980, modified); format: in vivo; settings: 8 h after ethanol removal, 5 min test, withdrawn NMRI mice
# Method: (§1) Des souris de souche NMRI (élevage Janvier), âgées de 5 à 6 semaines et de poids compris entre 25 et 30 g sont utilisées après 10 jours d'habituation aux conditions du laboratoire. Les conditions d'hébergement sont les suivantes : t° ambiante = 22 ± 2 °C; hygrométrie relative = 50 ± 20 %; cycle lumière/obscurité : 12 h/12 h (lumière de 7h00 à 19h00); nourriture A04 (SAFE, France) et boisson (eau du robinet) à volonté; dix animaux groupés par cage de polypropylène (435x435x194 mm).
# (§2) Dans un premier temps, les animaux ont été familiarisés avec la nourriture liquide apportée sous un volume quotidien de 40 ml durant 7 à 10 jours. Celle-ci est constituée de lait chocolaté (Candia, France) auquel sont ajoutés 5 g/l d'un mélange de sels minéraux (ICN, France) et 3 g/l d'un mélange de vitamines (ICN, France).
# (§3) Dans un deuxième temps, les animaux alcoolisés ont reçu la nourriture liquide contenant 3 % (p/v) d'éthanol (95°) durant 8 jours puis 4 % (p/v) d'éthanol (95°) durant 7 jours, tandis que les animaux témoins (non alcoolisés) ont eu accès à une nourriture avec l'équivalent calorique de dextrose (D-glucose, VWR, France).
# (§4) Aucune nourriture solide, ni eau de boisson n'ont été proposées aux animaux durant cette période d'alcoolisation. Au terme des 15 jours d'alcoolisation (J15), le biberon avec l'alcool a été remplacé par un biberon de nourriture identique à celui des animaux témoins.
# Le protocole décrit par Crawley and Goodwin (1980) Pharmacol Biochem Behav 1980; 13: 167-170 et légèrement modifié a été utilisé. Cette épreuve, reposant sur les tendances agoraphobiques et photophobiques des rongeurs, est classiquement utilisée pour mesurer leur niveau de peur ou d'anxiété.
# Le dispositif est constitué d'une boîte en plexiglas à 2 compartiments (OSYS, Orga System; France) : l'un (18 x 27 x 30 cm) sombre et pourvu d'un couvercle, est éclairé à l'aide d'une lampe rouge (60W; 4 lux) tandis que le plus grand (27 x 27 x 30 cm), peint en blanc, est éclairé à l'aide d'une lampe de 60 W (400 lux). Une entrée (7.5 x 7.5 cm) située au centre de la cloison qui sépare les 2 compartiments, relie les 2 compartiments. Ceux-ci, équipés de cellules photoélectriques infra-rouges (4 dans le compartiment clair et 3 dans le compartiment sombre) reliées à un compteur digital, permettent la détection et la mesure des déplacements de l'animal. Celui-ci est déposé au centre du compartiment sombre face à l'ouverture. La latence d'entrée (en sec.) dans le compartiment clair, le nombre de déplacements dans le compartiment clair et le nombre de transition entre les 2 compartiments sombre et clair sont relevés au terme d'une épreuve de 5 min. La boîte est nettoyée avec de l'eau alcoolisée (10 %; v/v) pour éliminer toute trace odorante entre chaque passage. L'épreuve est réalisée 8 h après le retrait de la nourriture alcoolisée. Ce délai correspond au temps optimal pour la mesure du niveau d'anxiété chez l'animal soumis au sevrage alcoolique (Watson et Little (1994) Psychopharmacology (Berl) 114: 329-336).
# L'étifoxine (6.25 - 50 mg/kg) ou le diazépam (1 mg/kg) est administré par voie ip 30 min avant l'épreuve. Les animaux contrôles reçoivent un volume équivalent de liquide véhicule.
# L'étifoxine (lots 219 et 350; Biocodex - France) est mis en suspension dans une solution saline (NaCl-0.9 %; p/v) de tween 80 à 1% (v/v) tandis que le diazépam (Valium®) est solubilisé dans une solution saline. Le volume d'administration par voie ip est de 0.1 ml/10 g.
# Les résultats sont exprimés par la valeur moyenne ± erreur standard à la moyenne (esm). Concernant la mesure de l'intensité des convulsions induites par la manipulation, l'analyse de variance (ANOVA) à 2 facteurs (temps x traitement) avec mesures répétées sur le facteur temps suivie de manière post-hoc par le test de Student Newman-Keuls, a été utilisée pour localiser les différences entre les groupes expérimentaux. […]
# [2] = test system: souris sevrée; experiment: Handling-induced convulsion score during alcohol withdrawal (Watson and Little 1995); format: in vivo; settings: NMRI mice, 4 to 6 h after removal
# Method: as §1, §2, §3, §4
# Cette mesure est effectuée selon le protocole décrit par Watson and Little (1995) J Pharmacol Exp Ther 272: 876-884. Brièvement, l'animal est soulevé par la queue et maintenu durant 30 secondes à 30 cm d'une lampe pourvue d'une ampoule de 60W puis subit une légère rotation (360°). Le comportement de chaque animal est évalué selon une échelle de cotation de 0 à 5, selon des critères figurant dans le Tableau 1 : Tableau 1 : Différents niveaux de cotation du comportement chez la souris selon Watson et Little (1995)
# La mesure est réalisée avant l'expérience (conditions basales), 24 heures avant le retrait de l'éthanol puis le jour du retrait toutes les heures de 1 à 7 heures après le retrait du biberon de nourriture (7h00 - 8h00 le matin).
# L'étifoxine (6.25 - 100 mg/kg) et le diazépam (1 et 4 mg/kg) sont administrés par voie intrapéritonéale (ip) 3h30 après le retrait du biberon. Une étude préliminaire a montré que les signes de sevrage étaient présents à ce temps (score ≥ 2). Les animaux contrôles reçoivent un volume équivalent de liquide véhicule.
# Un score (de 0 à 5) est attribué pour chaque animal à chaque temps (de 1 à 7 h).
# L'étifoxine (lots 219 et 350; Biocodex - France) est mis en suspension dans une solution saline (NaCl-0.9 %; p/v) de tween 80 à 1% (v/v) tandis que le diazépam (Valium®) est solubilisé dans une solution saline. Le volume d'administration par voie ip est de 0.1 ml/10 g. […]
SMILES,latence d'entrée dans le compartiment clair ([1]; 1 mg/kg ip 30 min before test),nombre de déplacements dans le compartiment clair ([1]; 1 mg/kg ip 30 min before test),nombre de transitions entre les 2 compartiments ([1]; 1 mg/kg ip 30 min before test),score de convulsions ([2]; mainly at 4 mg/kg ip 3h30 after ethanol removal),latence d'entrée dans le compartiment clair ([1]; 50 mg/kg ip 30 min before test),nombre de déplacements dans le compartiment clair ([1]; 50 mg/kg ip 30 min before test),nombre de transitions entre les 2 compartiments ([1]; 50 mg/kg ip 30 min before test),"score de convulsions ([2]; 12.5 mg/kg ip 3h30 after ethanol removal, vs alcoholised controls, p<0.05)","score de convulsions ([2]; 25 mg/kg ip 3h30 after ethanol removal, vs alcoholised controls, p<0.05)","score de convulsions ([2]; 100 mg/kg ip 3h30 after ethanol removal, vs alcoholised controls, p<0.05)"
CN1C(=O)CN=C(c2ccccc2)c2cc(Cl)ccc21 [diazépam],atténue également de manière significative les effets du retrait de l'éthanol,atténue également de manière significative les effets du retrait de l'éthanol,atténue également de manière significative les effets du retrait de l'éthanol,produit le même effet,,,,,,
"CCNC1=Nc2ccc(Cl)cc2C(C)(c2ccccc2)O1 (stereo not shown) [étifoxine, chlorhydratede 6-chloro-2-éthylamino-4-méthyl-4-phényl-4H-[3,1]benzoxazine]",,,,,s'oppose aux effets du sevrage à l'éthanol sur ces 3 paramètres avec un effet statistiquement significatif,s'oppose aux effets du sevrage à l'éthanol sur ces 3 paramètres avec un effet statistiquement significatif,s'oppose aux effets du sevrage à l'éthanol sur ces 3 paramètres avec un effet statistiquement significatif,réduit significativement le score de convulsions,réduit significativement le score de convulsions,réduit significativement le score de convulsions
